Assay results published in ChEMBL document CHEMBL2203037, “Synthesis and Anti-influenza A Virus Activity of 2,2-Dialkylamantadines and Related Compounds” (ACS Med Chem Lett, 2012).

Key:
Influenza B virus [1] = assay: Antiviral activity against amantidine and rimantadine-resistant Influenza B virus (B/HK/5/72) infected in MDCK cells assessed as virus-induced cytopathic effect by MTS assay; format: functional, cell-based; conditions: B/Hong Kong/05/1972, MDCK
Influenza B virus [2] = assay: Antiviral activity against amantidine and rimantadine-resistant Influenza B virus (B/HK/5/72) infected in MDCK cells assessed as virus-induced cytopathic effect measured 3 days post infection by microscopic analysis; format: functional, cell-based; conditions: B/Hong Kong/05/1972, MDCK, 72 h
Influenza A virus [3] = assay: Antiviral activity against amantadine-resistant Influenza A virus (A/PR/8/34 (H1N1)) infected in MDCK cells assessed as virus-induced cytopathic effect measured 3 days post infection by microscopic analysis; format: functional, organism-based; conditions: A/Puerto Rico/8/1934(H1N1), 72 h
Influenza A virus [4] = assay: Antiviral activity against amantadine-resistant Influenza A virus (A/PR/8/34 (H1N1)) infected in MDCK cells assessed as virus-induced cytopathic effect by MTS assay; format: functional, organism-based, A/Puerto Rico/8/1934(H1N1)
[5] = Selectivity index, ratio of CC50 for dog MDCK cells to EC50 for amantadine-resistant Influenza A virus (A/PR/8/34 (H1N1)); format: toxicity, cell-based; conditions: read-out: Ratio CC50/EC50
[6] = Influenza A virus, A/Puerto Rico/8/1934(H1N1), MDCK

CCC1(CC)C2CC3CC(C2)CC1(NC)C3
EC50 (Influenza B virus [1]): > 100 µM
EC50 (Influenza B virus [2]): > 100 µM
EC50 (Influenza A virus [3]): 4 µM

CCCC1(CCC)C2CC3CC(C2)CC1(N(C)C)C3
EC50 (Influenza B virus [1]): > 100 µM
EC50 (Influenza B virus [2]): > 100 µM
EC50 (Influenza A virus [4]; [6]): 6.7 µM
EC50 (Influenza A virus [3]): 6 µM

CN(C)C12CC3(C)CC(CC3(C)C1)C2(C)C
EC50 (Influenza B virus [1]): > 100 µM
EC50 (Influenza B virus [2]): > 100 µM
EC50 (Influenza A virus [4]; [6]): 5.7 µM
EC50 (Influenza A virus [3]): 5.8 µM

CC(C)C1C2CC3CC(C2)CC1(N(C)C)C3 (centres undefined)
EC50 (Influenza B virus [1]): > 50 µM
EC50 (Influenza B virus [2]): > 100 µM
EC50 (Influenza A virus [4]; [6]): 6 µM
EC50 (Influenza A virus [3]): 5.1 µM

CC1(C)C2CC3CC(C2)CC1(N)C3
EC50 (Influenza B virus [1]): > 100 µM
EC50 (Influenza B virus [2]): > 100 µM
EC50 (Influenza A virus [4]; [6]): 10 µM
EC50 (Influenza A virus [3]): 15 µM

CCC1(CC)C2CC3CC(C2)CC1(N)C3
selectivity ratio [5]: > 50
EC50 (Influenza B virus [1]): > 100 µM
EC50 (Influenza B virus [2]): > 100 µM
EC50 (Influenza A virus [4]; [6]): 1.7 µM
EC50 (Influenza A virus [3]): 1.2 µM

CCCC1(CCC)C2CC3CC(C2)CC1(N)C3
EC50 (Influenza B virus [1]): > 100 µM
EC50 (Influenza B virus [2]): > 100 µM
EC50 (Influenza A virus [4]; [6]): > 100 µM
EC50 (Influenza A virus [3]): > 100 µM

CC(C)C1C2CC3CC(C2)CC1(N)C3 (centres undefined)
EC50 (Influenza B virus [1]): > 100 µM
EC50 (Influenza B virus [2]): > 100 µM
EC50 (Influenza A virus [4]; [6]): 1.2 µM
EC50 (Influenza A virus [3]): 5.8 µM

NC12CC3CC(CC(C3)C13CCCCC3)C2
EC50 (Influenza B virus [1]): > 100 µM
EC50 (Influenza B virus [2]): > 100 µM
EC50 (Influenza A virus [4]; [6]): 0.9 µM
EC50 (Influenza A virus [3]): 1.1 µM

CC12CC3CC1(C)CC(N)(C2)C3(C)C
EC50 (Influenza B virus [1]): > 100 µM
EC50 (Influenza B virus [2]): > 100 µM
EC50 (Influenza A virus [4]; [6]): 4.5 µM
EC50 (Influenza A virus [3]): 4.6 µM

CN(C)C12CC3CC(CC(C3)C1(C)C)C2
EC50 (Influenza B virus [1]): > 100 µM
EC50 (Influenza B virus [2]): > 100 µM
EC50 (Influenza A virus [4]; [6]): 4.8 µM
EC50 (Influenza A virus [3]): 4 µM

CCNC12CC3CC(CC(C3)C1(C)C)C2
EC50 (Influenza B virus [1]): > 100 µM
EC50 (Influenza B virus [2]): > 100 µM
EC50 (Influenza A virus [4]; [6]): > 100 µM
EC50 (Influenza A virus [3]): > 100 µM

CC1(C)C2CC3CC(C2)CC1(NCc1ccccc1)C3
EC50 (Influenza B virus [1]): > 100 µM
EC50 (Influenza B virus [2]): > 100 µM
EC50 (Influenza A virus [4]; [6]): > 100 µM
EC50 (Influenza A virus [3]): > 100 µM

CC1(C)C2CC3CC(C2)CC1(N1CCCCC1)C3
EC50 (Influenza B virus [1]): > 100 µM
EC50 (Influenza B virus [2]): > 100 µM
EC50 (Influenza A virus [4]; [6]): > 100 µM
EC50 (Influenza A virus [3]): > 100 µM

CN(Cc1ccccc1)C12CC3CC(CC(C3)C1(C)C)C2
EC50 (Influenza B virus [1]): > 100 µM
EC50 (Influenza B virus [2]): > 100 µM
EC50 (Influenza A virus [4]; [6]): > 100 µM
EC50 (Influenza A virus [3]): > 100 µM

CNC12CC3CC(CC(C3)C1(C)C)C2
EC50 (Influenza B virus [1]): > 100 µM
EC50 (Influenza B virus [2]): > 100 µM
EC50 (Influenza A virus [4]; [6]): 10 µM
EC50 (Influenza A virus [3]): 6 µM

CCC1(CC)C2CC3CC(C2)CC1(N(C)C)C3
EC50 (Influenza B virus [1]): > 100 µM
EC50 (Influenza B virus [2]): > 100 µM
EC50 (Influenza A virus [4]; [6]): 9.6 µM
EC50 (Influenza A virus [3]): 0.7 µM

NC12CC3CC(CC(C3)C1)C2 [AMANTADINE]
EC50 (Influenza B virus [1]): > 100 µM
EC50 (Influenza B virus [2]): > 100 µM
EC50 (Influenza A virus [3]): 53 µM

CCOC(=O)C1=C[C@@H](OC(CC)CC)[C@H](NC(C)=O)[C@@H](N)C1 [OSELTAMIVIR]
EC50 (Influenza A virus [3]): 21 µM

NC(=O)c1ncn([C@@H]2O[C@H](CO)[C@@H](O)[C@H]2O)n1 [RIBAVIRIN]
EC50 (Influenza B virus [1]): 8.1 µM
EC50 (Influenza B virus [2]): 8 µM
EC50 (Influenza A virus [4]; mdck): 8.2 µM

CC(N)C12CC3CC(CC(C3)C1)C2 (centres undefined) [RIMANTADINE]
EC50 (Influenza B virus [1]): > 100 µM
EC50 (Influenza B virus [2]): > 100 µM
EC50 (Influenza A virus [3]): 63 µM

CC(=O)N[C@H]1[C@H]([C@H](O)[C@H](O)CO)OC(C(=O)O)=C[C@@H]1NC(=N)N [ZANAMIVIR]
EC50 (Influenza A virus [3]): 6 µM
